Here are results for 38 molecules from US6924301B1, “Composition for treating or preventing arrhythmia” (Shionogi & Co., Ltd., priority 1999, dated 2005).

Structures are written as SMILES.

One test concerns the target T1, cPLA2 (Homo sapiens, UniProt P47712).
T1 sequence (P47712 1-749): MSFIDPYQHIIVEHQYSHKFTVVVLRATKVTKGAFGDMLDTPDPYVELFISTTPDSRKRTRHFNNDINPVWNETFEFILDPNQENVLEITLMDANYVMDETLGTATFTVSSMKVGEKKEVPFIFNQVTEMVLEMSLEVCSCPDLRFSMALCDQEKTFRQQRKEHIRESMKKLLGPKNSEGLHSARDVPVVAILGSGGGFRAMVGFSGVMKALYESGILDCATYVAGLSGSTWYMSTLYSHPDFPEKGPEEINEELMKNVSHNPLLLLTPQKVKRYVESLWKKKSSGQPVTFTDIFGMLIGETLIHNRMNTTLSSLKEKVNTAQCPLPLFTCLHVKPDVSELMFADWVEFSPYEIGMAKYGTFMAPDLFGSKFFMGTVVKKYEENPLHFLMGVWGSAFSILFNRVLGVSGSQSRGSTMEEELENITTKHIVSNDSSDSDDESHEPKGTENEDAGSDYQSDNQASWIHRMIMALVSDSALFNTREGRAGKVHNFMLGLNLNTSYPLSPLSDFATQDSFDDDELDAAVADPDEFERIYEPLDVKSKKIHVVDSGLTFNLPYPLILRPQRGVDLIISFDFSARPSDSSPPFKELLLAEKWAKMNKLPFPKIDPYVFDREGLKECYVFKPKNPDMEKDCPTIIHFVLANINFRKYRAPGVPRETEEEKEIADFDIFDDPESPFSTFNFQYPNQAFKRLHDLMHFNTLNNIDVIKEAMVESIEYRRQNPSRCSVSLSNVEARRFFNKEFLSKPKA
The experiment in a line: cPLA2 inhibitory activity. It is filed as biochemical. Particulars: 1-palmitoyl-2-[14C]-arachidonoyl-sn-glycero-3-phosphocholine liposomes, 15 min at 37° C. The method, then:
The compounds of the present invention were tested for the cPLA2 inhibitory activity according to the method disclosed in […]. Roberts, […], and J. E. Putnam, J. Biol. Chem., 1991, 266, 5268-5272 as outlined below. […] The reaction mixture includes 50 mM HEPES buffer (pH 7.5), 1 mM calcium chloride, 150 mM sodium chloride, 0.1 mg/ml bovine serum albumin, and 1.7 mM dithiothreitol. To the reaction mixture was added the compound of the present invention and the substrate solution. The reaction was allowed to start by adding an enzyme and continued for 15 min at 37° C. The fatty acids released by the reaction were extracted by the method described in V. P. Dole, and H. Meinertz, J. Biol. Chem., 1960, 235, 2595-2599 and its radiation activity was measured on a liquid scintillation counter. Control was obtained by conducting the experiment in the same manner except that a compound of the present invention was not added.
In turn, `CC(C)CN(C(c1ccccc1)c1ccccc1)[C@@H]1C[C@@H](CNC(=O)c2ccc(/C=C3\SC(=O)NC3=O)cc2)N(C(=O)c2ccccc2C(=O)c2ccccc2)C1` [Compound A-1] came in with an IC50 of 33 nM.

For `CC(C)CN(C1CC(CNC(=O)c2ccc(C=C3SC(=O)NC3=O)cc2)N(C(=O)c2ccccc2C(=O)c2ccccc2F)C1)C(c1ccccc1)c1ccccc1` (centres unmarked) [Compound A-2], the IC50 turned out to be 14 nM.

`CC(C)CN(C1CC(CNC(=O)c2ccc(C=C3SC(=O)NC3=O)cc2)N(C(=O)c2ccccc2C(=O)c2cccc(F)c2)C1)C(c1ccccc1)c1ccccc1` (centres unmarked) [Compound A-3] showed an IC50 of 94 nM. For the molecule `CC(C)CN(C1CC(CNC(=O)c2ccc(C=C3SC(=O)NC3=O)cc2)N(C(=O)c2ccccc2C(=O)c2c(F)cccc2F)C1)C(c1ccccc1)c1ccccc1` (centres unmarked) [Compound A-5], 7.4 nM corresponded to half-maximal inhibition (IC50). As for `CC(C)CN(C1CC(CNC(=O)c2ccc(C=C3SC(=O)NC3=O)cc2)N(C(=O)c2cccc(F)c2C(=O)c2ccc(F)cc2F)C1)C(c1ccccc1)c1ccccc1` (centres unmarked) [Compound A-6], half-maximal inhibition (IC50) was put at 4.5 nM.

As to `CC(C)CN(C1CC(CNC(=O)c2ccc(C=C3SC(=O)NC3=O)cc2)N(C(=O)c2c(F)cccc2C(=O)c2ccc(F)cc2F)C1)C(c1ccccc1)c1ccccc1` (centres unmarked) [Compound A-7], the IC50 was 5.1 nM. This IC50 and that of the molecule before are within 1.5-fold of each other. Same read-out and setting: the same measure for `CC(C)CN(C1CC(CNC(=O)c2ccc(C=C3SC(=O)NC3=O)cc2)N(C(=O)c2ccc(F)cc2C(=O)c2ccc(F)cc2F)C1)C(c1ccccc1)c1ccccc1` (centres unmarked) [Compound A-8]: 5 nM; for `CC(C)CN(C1CC(CNC(=O)c2ccc(C=C3SC(=O)NC3=O)cc2)N(C(=O)c2cc(F)ccc2C(=O)c2ccc(F)cc2F)C1)C(c1ccccc1)c1ccccc1` (centres unmarked) [Compound A-9]: 2 nM. Molecule `COc1ccc(C(=O)c2ccc(F)cc2F)c(C(=O)N2CC(N(CC(C)C)C(c3ccccc3)c3ccccc3)CC2CNC(=O)c2ccc(C=C3SC(=O)NC3=O)cc2)c1` (centres unmarked) [Compound A-10] returned an IC50 of 29 nM. Take `CC(C)CN(C1CC(CNC(=O)c2ccc(C=C3SC(=O)NC3=O)cc2)N(C(=O)c2cc(Cl)ccc2C(=O)c2ccc(F)cc2F)C1)C(c1ccccc1)c1ccccc1` (centres unmarked) [Compound A-11]: the IC50 came to 5.2 nM. On to `CC(C)CN(C1CC(CNC(=O)c2ccc(C=C3SC(=O)NC3=O)s2)N(C(=O)c2ccccc2C(=O)c2ccc(F)cc2F)C1)C(c1ccccc1)c1ccccc1` (centres unmarked) [Compound A-12], for which the IC50 amounted to 2.1 nM. In the case of `CC(C)CN(Cc1ccccc1-c1ccccc1)[C@@H]1C[C@@H](CNC(=O)/C=C/c2ccc(/C=C3\SC(=O)NC3=O)cc2)N(C(=O)c2ccccc2C(=O)c2ccc(F)cc2F)C1` [Compound A-14], half-maximal inhibition (IC50) was put at 1.8 nM.

As for `O=C(/C=C/c1ccc(/C=C2\SC(=O)NC2=O)cc1)NC[C@@H]1C[C@@H](N(Cc2ccccc2)C(c2ccccc2)c2ccccc2)CN1C(=O)c1ccccc1C(=O)c1ccc(F)cc1F` [Compound A-17], half-maximal inhibition (IC50) required 3.7 nM. Molecule `O=C1NC(=O)C(=Cc2ccc(C(=O)NCC3CC(SCc4c(-c5ccccc5)cccc4-c4ccccc4)CN3C(=O)c3ccccc3C(=O)c3ccc(F)cc3F)cc2)S1` (centres unmarked) [Compound B-2] gave an IC50 of 20 nM. Consider `COc1ccc(C(SC2CC(CNC(=O)c3ccc(C=C4SC(=O)NC4=O)cc3)N(C(=O)c3ccccc3C(=O)c3ccc(F)cc3F)C2)(c2ccccc2)c2ccc(OC)cc2)cc1` (centres unmarked) [Compound B-3], for which the IC50 was 9 nM. Molecule `O=C1NC(=O)C(=Cc2ccc(C(=O)NCC3CC(SC(c4ccccc4)(c4cccc(F)c4)c4cccc(F)c4)CN3C(=O)c3ccccc3C(=O)c3ccc(F)cc3F)cc2)S1` (centres unmarked) [Compound B-4] came in with an IC50 of 2.6 nM. In the case of `O=C1NC(=O)C(=Cc2ccc(C(=O)NCC3CC(SC(c4ccccc4)(c4ccccc4)c4cc(F)cc(F)c4)CN3C(=O)c3ccccc3C(=O)c3ccc(F)cc3F)cc2)S1` (centres unmarked) [Compound B-5], 2.7 nM corresponded to half-maximal inhibition (IC50).

Molecule `Cc1cc(C)cc(C(SC2CC(CNC(=O)c3ccc(C=C4SC(=O)NC4=O)cc3)N(C(=O)c3ccccc3C(=O)c3ccc(F)cc3F)C2)(c2ccccc2)c2ccccc2)c1` (centres unmarked) [Compound B-6] showed an IC50 of 1.3 nM.

The same test, now with this note: 0.25 h; Table 10; same assay.
For `Cc1cccc(C(SC2CC(CNC(=O)c3ccc(C=C4SC(=O)NC4=O)cc3)N(C(=O)c3ccccc3C(=O)c3ccc(F)cc3F)C2)(c2ccccc2)c2cccc(C)c2)c1` (centres unmarked) [Compound B-7], the IC60 amounted to 1.4 nM. Consider `O=C1NC(=O)C(Cc2ccc(C(=O)NCC3CC(SC(c4ccccc4)(c4ccccc4)c4ccccc4)CN3C(=O)c3ccccc3C(=O)c3ccc(F)cc3F)cc2)S1` (centres unmarked) [Compound B-8], for which the IC60 worked out at 1.2 nM. The molecule `O=C(C=Cc1ccc(C=C2SC(=O)NC2=O)cc1)NCC1CC(SC(c2ccccc2)(c2ccccc2)c2ccccc2)CN1C(=O)c1ccccc1C(=O)c1ccc(F)cc1F` (centres unmarked) [Compound B-9] came in with an IC60 of 0.6 nM. On the same count and under the same terms, as for `O=C(C=Cc1ccc(C=C2SC(=O)NC2=O)cc1)NCC1CC(SCc2c(-c3ccccc3)cccc2-c2ccccc2)CN1C(=O)c1ccccc1C(=O)c1ccc(F)cc1F` (centres unmarked) [Compound B-10], the figure is 5.6 nM. Molecule `COc1ccc(C(SC2CC(CNC(=O)C=Cc3ccc(C=C4SC(=O)NC4=O)cc3)N(C(=O)c3ccccc3C(=O)c3ccc(F)cc3F)C2)(c2ccccc2)c2ccccc2)cc1` (centres unmarked) [Compound B-11] returned an IC60 of 1.2 nM. Same read-out and setting: the same measure for `COc1ccc(C(SC2CC(CNC(=O)C=Cc3ccc(C=C4SC(=O)NC4=O)cc3)N(C(=O)c3ccccc3C(=O)c3ccc(F)cc3F)C2)(c2ccccc2)c2ccc(OC)cc2)cc1` (centres unmarked) [Compound B-12]: 2 nM. The molecule `Cc1ccc(C(SC2CC(CNC(=O)C=Cc3ccc(C=C4SC(=O)NC4=O)cc3)N(C(=O)c3ccccc3C(=O)c3ccc(F)cc3F)C2)(c2ccccc2)c2ccccc2)cc1` (centres unmarked) [Compound B-13] had an IC60 of 2 nM. Regarding `O=C(C=Cc1ccc(C=C2SC(=O)NC2=O)cc1)NCC1CC(SC(c2ccc(F)cc2)(c2ccc(F)cc2)c2ccc(F)cc2)CN1C(=O)c1ccccc1C(=O)c1ccc(F)cc1F` (centres unmarked) [Compound B-14], the IC60 stood at 1.2 nM. Same read-out and setting: as for `Cc1ccccc1C(SC1CC(CNC(=O)C=Cc2ccc(C=C3SC(=O)NC3=O)cc2)N(C(=O)c2ccccc2C(=O)c2ccc(F)cc2F)C1)(c1ccccc1)c1ccccc1` (centres unmarked) [Compound B-15], the figure is 1.2 nM; as for `Cc1cccc(C(SC2CC(CNC(=O)C=Cc3ccc(C=C4SC(=O)NC4=O)cc3)N(C(=O)c3ccccc3C(=O)c3ccc(F)cc3F)C2)(c2ccccc2)c2ccccc2)c1` (centres unmarked) [Compound B-16], 1 nM; as for `O=C(C=Cc1ccc(C=C2SC(=O)NC2=O)cc1)NCC1CC(SC(c2ccc(Cl)cc2)(c2ccc(Cl)cc2)c2ccc(Cl)cc2)CN1C(=O)c1ccccc1C(=O)c1ccc(F)cc1F` (centres unmarked) [Compound B-17], 0.63 nM. The molecule `CC(C)c1cccc(C(SC2CC(CNC(=O)C=Cc3ccc(C=C4SC(=O)NC4=O)cc3)N(C(=O)c3ccccc3C(=O)c3ccc(F)cc3F)C2)(c2ccccc2)c2ccccc2)c1` (centres unmarked) [Compound B-18] registered an IC60 of 0.26 nM.

For `O=C(C=Cc1ccc(C=C2SC(=O)NC2=O)cc1)NCC1CC(SC(c2ccccc2)(c2ccccc2)c2cccs2)CN1C(=O)c1ccccc1C(=O)c1ccc(F)cc1F` (centres unmarked) [Compound B-19], the IC60 was determined as 2.9 nM.

On to `O=C(C=Cc1ccc(CC2SC(=O)NC2=O)cc1)NCC1CC(SC(c2ccccc2)(c2ccccc2)c2ccccc2)CN1C(=O)c1ccccc1C(=O)c1ccc(F)cc1F` (centres unmarked) [Compound B-20], for which the IC60 stood at 1.4 nM. On to `Cc1cccc(C(SC2CC(CNC(=O)C=Cc3ccc(C=C4SC(=O)NC4=O)cc3)N(C(=O)c3ccccc3C(=O)c3ccc(F)cc3F)C2)(c2ccccc2)c2cccc(C)c2)c1` (centres unmarked) [Compound B-21], for which the IC60 came out at 0.27 nM. In turn, `Cc1cc(C)cc(C(SC2CC(CNC(=O)C=Cc3ccc(C=C4SC(=O)NC4=O)cc3)N(C(=O)c3ccccc3C(=O)c3ccc(F)cc3F)C2)(c2ccccc2)c2ccccc2)c1` (centres unmarked) [Compound B-22] displayed an IC60 of 0.37 nM. With `O=C(C=Cc1ccc(C=C2SC(=O)NC2=O)cc1)NCC1CC(SC(c2ccccc2)(c2ccccc2)c2ccccc2F)CN1C(=O)c1ccccc1C(=O)c1ccc(F)cc1F` (centres unmarked) [Compound B-23], the IC60 stood at 0.52 nM. For `O=C(C=Cc1ccc(C=C2SC(=O)NC2=O)cc1)NCC1CC(SC(c2ccccc2)(c2ccccc2)c2cccc(F)c2)CN1C(=O)c1ccccc1C(=O)c1ccc(F)cc1F` (centres unmarked) [Compound B-24], the IC60 worked out at 0.36 nM. `O=C(C=Cc1ccc(C=C2SC(=O)NC2=O)cc1)NCC1CC(SC(c2ccccc2)(c2ccccc2)c2ccc(F)cc2)CN1C(=O)c1ccccc1C(=O)c1ccc(F)cc1F` (centres unmarked) [Compound B-25]: the IC60 worked out at 0.43 nM.

The molecule `O=C1NC(=O)/C(=C/c2ccc(C(=O)NC[C@@H]3C[C@@H](OCc4ccccc4-c4ccccc4)CN3C(=O)c3ccccc3C(=O)c3ccc(F)cc3F)s2)S1` [Compound C-1] had an IC60 of 24 nM.

A word on the IC50: it is the concentration that inhibits the measured activity by half. A higher IC50 goes with lower potency.
